Patent US20090149484A1, “QUINAZOLIN-4-ONE DERIVATIVES, PROCESS FOR THEIR PREPARATION AND PHARMACEUTICAL COMPOSITIONS CONTAINING THEM” (ASTRAZENECA AB, priority 2006, published 2009)

Molecular target: T1, His-tagged Mutant B-Raf (V600E) enzyme (MT B-Raf) (Homo sapiens, UniProt P15056, V600E)
T1 construct: purified full length His-tagged Mutant B-Raf (V600E) enzyme; made in house; host or cells: insect cells
Assay: B-Raf in-vitro AlphaScreen assay
Assay type: biochemical
Conditions: phosphorylation of biotinylated HIS-MEK-AVI, 0.12 nM MT B-Raf, 24 μM ATP in mix
Experimental: B-Raf in-Vitro AlphaScreen Assay
Activity of purified full length His-tagged Mutant B-Raf (V600E) enzyme (MT B-Raf) was determined in-vitro using an Amplified Luminescent Proximity Homogeneous Assay (ALPHA)(Perkin Elmer, Mass.), which measures phosphorylation of the MT B-Raf substrate, biotinylated HIS-MEK-AVI (PLAZA internal database, construct #pAZB0141), as described below. MT B-Raf was expressed in insect cells and affinity purified by Ni^+2 agarose followed by Q-Sepharose chromatography. Typical yield was 1.08 mg/ml at >90% purity. The phosphorylation of the MT B-Raf substrate in the presence and absence of the compound of interest was determined. Briefly, 5 μl of enzyme/substrate/adenosine triphosphate (ATP) mix consisting of 0.12 nM MT B-Raf, 84 nM biotinylated HIS-MEK-AVI, and 24 μM ATP in 1.2× buffer was preincubated with 2 ul of compound for 20 minutes at 25° C. Reactions were initiated with 5 μl of Metal mix consisting of 24 mM MgCl2 in 1.2× buffer and incubated at 25° C. for 60 minutes and reactions were stopped by addition of 5 μl of Detection mix consisting of 20 mM HEPES, 102 mM ethylenediamine tetraacetic acid, 1.65 mg/ml BSA, 136 mM NaCl, 3.4 nM Phospho-MEK1/2 (Ser217/221) antibody (Catalog #9121, Cell Signaling Technology, MA), 40 μg/ml Streptavidin donor beads (Perkin Elmer, MA, Catalog #6760002), and 40 μg/ml Protein A acceptor beads (Perkin Elmer, MA, Catalog #6760137). Plates were incubated at 25° C. for 18 hours in the dark. Phosphorylated substrate was detected by an EnVision plate reader (Perkin Elmer, MA) 680 nm excitation, 520-620 nm emission. Data was graphed and IC50s calculated using Excel Fit (Microsoft).

T1 sequence (P15056 whole entry V600E): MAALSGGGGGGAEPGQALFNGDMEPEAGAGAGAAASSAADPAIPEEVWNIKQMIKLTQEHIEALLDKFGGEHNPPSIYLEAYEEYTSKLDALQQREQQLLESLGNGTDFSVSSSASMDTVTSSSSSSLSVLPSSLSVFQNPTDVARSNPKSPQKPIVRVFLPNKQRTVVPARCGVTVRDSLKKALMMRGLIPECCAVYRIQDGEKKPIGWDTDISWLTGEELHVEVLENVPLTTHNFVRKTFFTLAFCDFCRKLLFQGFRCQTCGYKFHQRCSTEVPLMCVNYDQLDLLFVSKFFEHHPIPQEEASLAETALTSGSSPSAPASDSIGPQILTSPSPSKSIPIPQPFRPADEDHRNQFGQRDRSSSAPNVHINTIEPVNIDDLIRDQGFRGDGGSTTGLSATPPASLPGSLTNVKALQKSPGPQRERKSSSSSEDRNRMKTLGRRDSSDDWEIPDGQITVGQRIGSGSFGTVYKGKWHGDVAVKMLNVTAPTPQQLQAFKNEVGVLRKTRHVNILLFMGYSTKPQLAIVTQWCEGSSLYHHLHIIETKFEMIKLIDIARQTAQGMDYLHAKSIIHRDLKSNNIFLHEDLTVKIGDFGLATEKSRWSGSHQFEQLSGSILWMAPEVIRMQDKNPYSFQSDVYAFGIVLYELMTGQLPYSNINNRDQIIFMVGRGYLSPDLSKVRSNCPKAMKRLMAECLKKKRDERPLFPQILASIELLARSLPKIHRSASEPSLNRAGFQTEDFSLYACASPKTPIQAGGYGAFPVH

| Structure (SMILES) | IC50 [nM] |
| --- | --- |
| Cn1cnc2ccc(Oc3ccc(NC(=O)Nc4cccc(C(F)(F)F)c4F)cc3)cc2c1=O [Example 7, N-[2-Fluoro-3-(trifluoromethyl)phenyl]-N′-{4-[(3-methyl-4-oxo-3,4-dihydroquinazolin-6-yl)oxy]phenyl}urea] | 340 |
| Cc1cc(NC(=O)Nc2ccc(Cl)c(C(F)(F)F)c2)ccc1Oc1ccc2ncn(C)c(=O)c2c1 [Example 3, N-[4-Chloro-3-(trifluoromethyl)phenyl]-N′-{3-methyl-4-[(3-methyl-4-oxo-3,4-dihydroquinazolin-6-yl)oxy]phenyl}urea] | 205 |
| Cn1cnc2ccc(Oc3ccc(NC(=O)Nc4ccc(Cl)c(C(F)(F)F)c4)cc3)cc2c1=O [Example 1, N-[4-Chloro-3-(trifluoromethyl)phenyl]-N′-{-4-[(3-methyl-4-oxo-3,4-dihydroquinazolin-6-yl)oxy]phenyl}urea] | 287 |
